From ChEMBL document CHEMBL3045724, “Synthesis, biopharmaceutical characterization, and antimicrobial study of novel azo dyes of 7-hydroxy-4-methylcoumarin” (2013)

Tests used:
Type in all cases: functional
Bacillus subtilis = test: Antimicrobial activity against Bacillus subtilis assessed as diameter of growth inhibition zone after 48 hr by agar cup plate method
Salmonella typhi = test: Antimicrobial activity against Salmonella enterica subsp. enterica serovar Typhi assessed as diameter of growth inhibition zone after 48 hr by agar cup plate method
Aspergillus niger = test: Antimicrobial activity against Aspergillus niger assessed as diameter of growth inhibition zone
Staphylococcus aureus = test: Antimicrobial activity against Staphylococcus aureus assessed as diameter of growth inhibition zone after 48 hr by agar cup plate method
Escherichia coli = test: Antimicrobial activity against Escherichia coli assessed as diameter of growth inhibition zone after 48 hr by agar cup plate method

Row | SMILES | inhibition zone (IZ) (Bacillus subtilis) [mm] | inhibition zone (IZ) (Salmonella typhi) [mm] | inhibition zone (IZ) (Aspergillus niger) [mm] | inhibition zone (IZ) (Staphylococcus aureus) [mm] | inhibition zone (IZ) (Escherichia coli) [mm]
1 | Cc1c/c(=N/CC/N=c2/cc(C)c3ccc(O)c(/N=N/c4ccccn4)c3o2)oc2c(/N=N/c3ccccn3)c(O)ccc12 | >15 | >15 | >15 | >15 | >15
2 | Cc1c/c(=N/CC/N=c2/cc(C)c3ccc(O)c(/N=N/c4cccnc4)c3o2)oc2c(/N=N/c3cccnc3)c(O)ccc12 | >15 | >15 | <5 | >15 | 10
3 | Cc1c/c(=N/CC/N=c2/cc(C)c3ccc(O)c(/N=N/c4ccncc4)c3o2)oc2c(/N=N/c3ccncc3)c(O)ccc12 | 10 | 10 | >15 | >15 | >15
4 | Cc1c/c(=N/CC/N=c2/cc(C)c3ccc(O)c(/N=N/c4c(C)n(C)n(-c5ccccc5)c4=O)c3o2)oc2c(/N=N/c3c(C)n(C)n(-c4ccccc4)c3=O)c(O)ccc12 | >15 | – | >15 | 10 | 10
5 | Cc1c/c(=N/CC/N=c2/cc(C)c3ccc(O)c(/N=N/c4cccc5ccccc45)c3o2)oc2c(/N=N/c3cccc4ccccc34)c(O)ccc12 | >15 | >15 | >15 | >15 | >15
6 | Cc1c/c(=N/CC/N=c2/cc(C)c3ccc(O)c(/N=N/C4=NCCS4)c3o2)oc2c(/N=N/C3=NCCS3)c(O)ccc12 | 10 | >15 | >15 | >15 | >15
7 | CC1(C)S[C@@H]2[C@H](NC(=O)[C@H](N)c3ccccc3)C(=O)N2[C@H]1C(=O)O [AMPICILLIN] | >15 | >15 | 10 | 10 | >15
8 | CN[C@@H]1[C@H](O[C@H]2[C@H](O[C@H]3[C@H](O)[C@@H](O)[C@H](N=C(N)N)[C@@H](O)[C@@H]3N=C(N)N)O[C@@H](C)[C@]2(O)C=O)O[C@@H](CO)[C@H](O)[C@H]1O [STREPTOMYCIN] | >15 | >15 | >15 | >15 | 10
